Consider 13 compounds from patent publication US20050031661A1, “Attractants for moths” (priority 2003, published 2005).

For test [1], the system named is corn earworm moths. Briefly: Double component Test 7, linalool, benzyl aldehyde, phenethyl alcohol combinations. Type of test: in vivo, Helicoverpa zea. The settings on record: single and double component combinations dispensed from vials. From the text:
(§1) Materials and Methods. The Universal Moth Trap (Great Lakes IPM, Vestaburg, Mich.) was used in all tests, with a 6 cm^2 piece of Vaportape® (Hercon Environmental Inc., Emigsville, Pa.) in each trap bucket to kill captured moths. The trap is an opaque white bucket with a yellow cone and green lid. Traps were hung from stakes in the weedy borders around irrigated fields in the vicinity of sweet corn and alfalfa, near Mattawa, Grant County, Wash. Traps were placed 12 meters apart in a north to south orientation, because of prevailing westerly winds.
(§2) A randomized complete block design was used, and treatments (trap lures) were randomized each time that traps were checked. Traps were checked twice per week, and insects were placed in pre-labeled plastic bags for transport to the laboratory where they were stored in a freezer until processed. Moths were sorted by sex and identified to species with the aid of a dissecting microscope.
(§3) Unless reported otherwise, polypropylene vials (8 ml) were used as dispensers for release of chemicals tested following the methods of Landolt et al., 2001, supra. Chemicals (5 ml) were pipetted onto cotton in the bottom of the vial. Holes made in the lids (3 mm diameter) permitted the escape of volatilized chemicals from the vials. Vials were suspended with wire near the bottom of the inside of the bucket of the trap. When more than one chemical was used to bait a trap, a separate vial was used for each chemical. Dispensers were replaced every 2 weeks when experiments lasted longer than two weeks.
Seven double component tests were conducted. For each two-component combinations, two vials were placed in the bucket of the trap; one vial containing phenylacetaldehyde and the other vial containing the second chemical (excepting the use of septa as dispensers for the third double component test that involved terpenes. Five replicate blocks, each including one of each of the different two-chemical combinations as well as phenylacetaldehyde alone, were set up and were maintained for two weeks.
Test 7. The combinations of linalool plus benzyl aldehyde, phenethyl alcohol plus benzaldehyde, and phenethyl alcohol plus linalool were compared to phenylacetaldehyde alone, linalool alone, benzyl aldehyde alone and phenethyl alcohol alone.
(§4) Trap catch data were subjected to an ANOVA and treatment means were separated using Tukey's test, following a significant F value in the ANOVA.

For test [2], the system named is corn earworm moths. Briefly: Single component floral lures, 2000 field season (Example 3). The settings on record: Universal Moth Traps baited with individual floral chemicals from polypropylene vials. It counts as in vivo, Helicoverpa zea.
From the text: as §1, §2, §3
During the 2000 field season, seven floral compounds were evaluated for attractiveness to corn earworm moths, testing them as lures in traps. These compounds were phenylacetaldehyde, benzyl alcohol, benzyl aldehyde, benzyl acetate, cis jasmone, linalool and phenethyl alcohol. A randomized complete block design was used, with 5 replicate blocks set up. Each block included an unbaited trap as a control.
as §4

Test [3] has as its system alfalfa looper moth. Particulars: Landolt et al., 2001; cited from earlier work.
The subject of test [4] is alfalfa looper moths. Briefly: Double component blends, benzyl acetate plus, trap captures. Particulars: Universal moth traps; benzyl acetate (BA) alone, PAA alone, or BA plus second chemical in separate vials. Type of test: in vivo, Autographa californica. From the text:
(§5) Materials and Methods. A multi-colored version of the Universal Moth Trap, or UniTrap® (AgriSense, sold by Great Lakes IPM, Vestaburg, Mich.), was used in all experiments. The trap is an opaque white bucket beneath a yellow cone and a green lid. A 2.5×2.5 cm piece of Vaportape® (Hercon Environmental, Emigsville, Pa.) was placed in each trap bucket as a killing agent. Traps were hung from stakes at a height of about one meter in uncultivated areas adjacent to fields of alfalfa or directly within alfalfa fields. Traps were placed 12 meters apart in a north to south orientation, because of prevailing westerly winds.
(§6) For all experiments, a randomized complete block design was used, and treatments were randomized each time traps were checked. Traps were checked twice per week, at which time all insects in the traps were placed in pre-labeled plastic bags for transport to the laboratory. Moths were identified and sorted by sex under a dissecting microscope.
Polypropylene vials (8 ml) were used as dispensers for release of chemicals tested, following the methods used in Landolt et al., 2001, supra. Chemicals (5 ml) were pipetted onto cotton in the bottom of the vial. Holes made in vial lids (3 mm diameter) permitted the escape of volatilized chemicals. Vials were suspended with wire near the bottom of the inside of the bucket of the UniTrap®. […]

Test [5] relates to corn earworm moths. Briefly: Double component Test 6, combinations with benzyl alcohol. Type of test: in vivo, Helicoverpa zea. Particulars: single and double component combinations dispensed from vials.
From the text: as §1, §2
Unless reported otherwise, polypropylene vials (8 ml) were used as dispensers for release of chemicals tested following the methods of Landolt et al., 2001, supra. Chemicals (5 ml) were pipetted onto cotton in the bottom of the vial. Holes made in the lids (3 mm diameter) permitted the escape of volatilized chemicals from the vials. Vials were suspended with wire near the bottom of the inside of the bucket of the trap. […]

Test [6] concerns cabbage looper moths. Briefly: Single component floral lures, Universal moth trap captures (Example 2). Type of test: in vivo, Trichoplusia ni. The settings on record: Universal moth traps baited with individual floral chemicals dispensed from polypropylene vials (5 ml, 3 mm hole).
From the text: as §5, §6
(§7) β-Pinene, (R)-(+)-α-pinene, (S)-(−)-limonene, β-myrcene, phenylacetaldehyde, methyl salicylate, and methyl-2-methoxybenzoate were purchased from Aldrich Chemical Co. (Milwaukee, Wis.). (R)-(+)-limonene was purchased from Acros Chemical Co. (Milwaukee, Wis.).
(§8) Polypropylene vials (8 ml) were used as dispensers for release of chemicals tested, following the methods used in Landolt et al., 2001, supra. Chemicals (5 ml) were pipetted onto cotton in the bottom of the vial. Holes made in vial lids (3 mm diameter) permitted the escape of volatilized chemicals. Vials were suspended with wire near the bottom of the inside of the bucket of the UniTrap®. When more than one chemical was used to bait a trap, a separate vial was used for each chemical. Dispensers were replaced after two weeks when experiments lasted longer than two weeks.
(§9) A comparison was made of moth captures in traps baited with seven different chemicals that are emitted by flowers. These chemicals were phenylacetaldehyde, (included as a positive control and standard for comparison), methyl salicylate, racemic limonene, methyl-2-methoxybenzoate, (R)-(+)-α-pinene, (S)-(−)-β-pinene, and β-myrcene. Five replicate blocks, each including these seven chemical treatments and an unbaited trap, were set up on 18 May 2001 and were maintained until 1 Jun. 2001. The study was conducted at an experimental farm about 20 km east of the town of Moxee, in Yakima County, Wash. The same study was conducted again 3-27 July 2001 near Mattawa, Grant County, Wash., in order to take advantage of cabbage looper populations that became apparent in mid summer.
as §4

The subject of test [7] is alfalfa looper moths. Described as above. Type of test: in vivo, Autographa californica. The settings on record: Universal moth traps baited with individual floral chemicals dispensed from polypropylene vials (5 ml, 3 mm hole).
From the text: as §5, §6, §7, §8, §9, §4

For test [8], the system named is corn earworm moths. Briefly: Single component floral lures, 2001 field season (Example 3). Type of test: in vivo, Helicoverpa zea. Particulars: Universal Moth Traps baited with individual floral chemicals from polypropylene vials.
From the text: as §1, §2
β-Pinene, R-(+)-alpha-pinene, (S)-(−)-limonene, β-myrcene, phenylacetaldehyde, methyl salicylate, and methyl-2-methoxybenzoate were purchased from Aldrich Chemical Inc. (Milwaukee, Wis.). (R)-(+)-limonene was purchased from Acros Chemical Co. (Milwaukee, Wis.).
as §3
A second comparison of floral compounds was made in the 2001 field season, for attractiveness to corn earworm moths. These chemicals were phenylacetaldehyde, methyl salicylate, racemic limonene, methyl-2-methoxybenzoate, […], (S)-beta pinene, and β-myrcene. Five replicate blocks, each including these seven chemical treatments and an unbaited trap as a control, were set up on 3 Jul. 2001 and were maintained until 27 Jul. 2001.
as §4

For test [9], the system named is corn earworm moths. Particulars: Cantelo and Jacobson, 1979b; cited from earlier work.

With `O=Cc1ccccc1` [Benzyl aldehyde, benzyl aldehyde], the “Mean (±SE) numbers of corn earworm moths captured” value in [1] and in test [2] was 0.05 ± 0.05a throughout. In addition, the “Attraction of alfalfa looper moths (capture in baited traps)” value (from here on “Attraction of alfalfa looper moths”) in test [3] is listed as “not attracted”.
As to `OCCc1ccccc1` [Phenethyl alcohol, phenethyl alcohol], the “Mean (±SE) numbers of corn earworm moths captured” value in test [1] is listed as 0.05 ± 0.05a; in test [2], 0.00 ± 0.00. Besides, the “Attraction of alfalfa looper moths” value in test [3] is on record as “not attracted”.
As for `CC(=O)OCc1ccccc1` [benzyl acetate], the “Mean (±SE) numbers of alfalfa looper moths captured” value in test [4] was 0.37 ± 0.12c. In test [2], the “Mean (±SE) numbers of corn earworm moths captured” value came out at 0.00 ± 0.00. The “Attraction of alfalfa looper moths” value in test [3] is “attracted”.
With `OCc1ccccc1` [benzyl alcohol], the results for the “Mean (±SE) numbers of corn earworm moths captured” value in [5] and in test [2] were 0.10 ± 0.07a and 0.15 ± 0.08a, respectively. For the same compound, the “Attraction of alfalfa looper moths” value in test [3] is listed as “not attracted”.
In the case of `CC/C=C\CC1=C(C)CCC1=O` [cis-jasmone], in test [2], the “Mean (±SE) numbers of corn earworm moths captured” value was determined as 0.00 ± 0.00. In addition, the “Attraction of alfalfa looper moths” value in [3] is “not attracted”.
On to `C=C(C)[C@H]1CC=C(C)CC1` [limonene], for which the “Mean (±SE) numbers of cabbage looper moths captured” value in test [6] came to 0.0 ± 0.0a. Moreover, the “Mean (±SE) numbers of alfalfa looper moths captured” value in test [7] is 0.0 ± 0.0a. Moreover, the “Mean (±SE) numbers of corn earworm moths captured” value in [8] is on record as 0.05 ± 0.05a.
For `C=CC(C)(O)CCC=C(C)C` (centres unmarked) [linalool], the “Mean (±SE) numbers of corn earworm moths captured” value came to 0.00 ± 0.00a in test [1] and 0.00 ± 0.00 in [2]. Also, the “Attraction of alfalfa looper moths” value in test [3] is “not attracted”.
As to `COC(=O)c1ccccc1O` [methyl salicylate], the “Mean (±SE) numbers of cabbage looper moths captured” value in test [6] amounted to 0.1 ± 0.1a. Moreover, the “Mean (±SE) numbers of alfalfa looper moths captured” value in test [7] was determined as 0.1 ± 0.0a. Moreover, in [8], the “Mean (±SE) numbers of corn earworm moths captured” value stood at 0.10 ± 0.05a.
The like results for `COC(=O)c1ccccc1OC` [methyl-2-methoxybenzoate] were, in that order, 0.6 ± 0.2b, 0.1 ± 0.0a and 3.90 ± 1.69b.
Consider `O=CCc1ccccc1` [phenylacetaldehyde], for which, in test [6], the “Mean (±SE) numbers of cabbage looper moths captured” value amounted to 7.2 ± 1.0c. Moreover, the “Mean (±SE) numbers of alfalfa looper moths captured” value in [7] is 4.5 ± 0.5c; in test [4], 0.83 ± 0.21e. Moreover, the “Mean (±SE) numbers of corn earworm moths captured” value worked out at 1.75 ± 0.43c in test [1], 2.25 ± 0.35c in [5], 0.45 ± 0.22b in [2] and 2.35 ± 0.62b in test [8]. For the same compound, in [3], the “Attraction of alfalfa looper moths” value is reported as “attracted”. The “Attraction of corn earworm moths” value in [9] is reported as “attract”.
Regarding `CC1=CC[C@@H]2C[C@H]1C2(C)C` [α-pinene, (R)-(+)-α-pinene], the “Mean (±SE) numbers of cabbage looper moths captured” value in test [6] is 0.1 ± 0.0a. The “Mean (±SE) numbers of alfalfa looper moths captured” value in [7] is 0.0 ± 0.0a. Also, the “Mean (±SE) numbers of corn earworm moths captured” value in [8] was found to be 0.08 ± 0.04a.
The like results for `C=CC(=C)CCC=C(C)C` [β-myrcene] were, in that order, 0.1 ± 0.1a, 0.4 ± 0.1b and 0.20 ± 0.10a.
The like results for `C=C1CC[C@H]2C[C@@H]1C2(C)C` [β-pinene, (S)-(−)-β-pinene] were, in that order, 0.0 ± 0.0a, 0.0 ± 0.0a and 0.03 ± 0.03a.
